According to the NIST ThermoML archive (doi:10.1016/j.jct.2013.06.020):

Test: mn = molality of the nth substance listed, in mol/kg
Settings: 298.15 K, 101 kPa, Liquid; for speed of sound: Sing-around technique in a fixed-path interferometer; for mass density: Vibrating tube method

CCOC(=O)C(C)O (stereo not drawn) [DL-ethyl lactate] + O
Settings	mass density [kg/m3]	speed of sound [m/s]
m1 = 0.0348	997.552	1498.7
m1 = 0.0378	997.579	1499
m1 = 0.0445	997.674	1499.6
m1 = 0.0513	997.748	1500
m1 = 0.063	997.869	1500.5
m1 = 0.0719	997.967	1501.1
m1 = 0.0895	998.152	1502.2
m1 = 0.1026	998.294	1503
m1 = 0.1207	998.489	1504
m1 = 0.1439	998.732	1505.6
m1 = 0.1856	999.184	1508.6
m1 = 0.2723	1000.1	1514
m1 = 0.5249	1002.7	1526
m1 = 0.6911	1004.35	1533.5
m1 = 0.8467	1005.83	1539.6
m1 = 1.02	1007.41	1545.3
m1 = 1.188	1008.87	1551.3
m1 = 1.359	1010.23	1556.1
m1 = 1.683	1012.78	1563.9
m1 = 2.058	1015.37	1572.5
m1 = 2.41	1017.49	1579
m1 = 2.725	1019.27	1585.2
m1 = 3.226	1021.64	1593.3
m1 = 3.731	1023.63	1601.1
m1 = 4.237	1025.37	1607.5

CCCCOC(=O)C(C)O (stereo unspecified) [butyl 2-hydroxypropanoate] + O
Settings	mass density [kg/m3]	speed of sound [m/s]
m1 = 0.0219	997.335	1498.8
m1 = 0.0262	997.377	1499.4
m1 = 0.0328	997.422	1499.9
m1 = 0.0399	997.472	1500.3
m1 = 0.0413	997.482	1500.5
m1 = 0.0444	997.503	1500.8
m1 = 0.0632	997.633	1502.3
m1 = 0.0659	997.652	1502.6
m1 = 0.0775	997.733	1503.7
m1 = 0.0915	997.826	1504.9
m1 = 0.1058	997.928	1506.1
m1 = 0.1167	998.001	1507
m1 = 0.1331	998.116	1508.4
m1 = 0.1551	998.265	1510.2
m1 = 0.1798	998.437	1512.2
m1 = 0.1979	998.576	1514
m1 = 0.2171	998.689	1515.5
m1 = 0.235	998.813	1516.7
m1 = 0.2647	999.004	1518.4
m1 = 0.2785	999.098	1519.4

CCCCOC(=O)CCC(C)=O [butyl levulinate] + O
Settings	mass density [kg/m3]	speed of sound [m/s]
m1 = 0.0029	997.066	1497.3
m1 = 0.0037	997.071	1497.5
m1 = 0.005	997.078	1497.6
m1 = 0.0055	997.08	1497.6
m1 = 0.0059	997.081	1497.7
m1 = 0.0074	997.088	1497.9
m1 = 0.0083	997.093	1497.9
m1 = 0.0088	997.096	1497.9
m1 = 0.011	997.107	1498.2
m1 = 0.0128	997.114	1498.4
m1 = 0.0135	997.123	1498.5
m1 = 0.0142	997.124	1498.5
m1 = 0.0208	997.158	1499.1
m1 = 0.0219	997.163	1499.4
m1 = 0.0257	997.183	1499.7
m1 = 0.0303	997.197	1500
m1 = 0.0312	997.209	1500.1
m1 = 0.0357	997.23	1500.6
m1 = 0.0466	997.273	1501.4
m1 = 0.0522	997.303	1501.8
m1 = 0.0625	997.333	1502.5

CCOC(=O)CCC(C)=O [ethyl levulinate] + O
Settings	mass density [kg/m3]	speed of sound [m/s]
m1 = 0.0358	997.518	1499.2
m1 = 0.0404	997.561	1499.6
m1 = 0.0431	997.587	1499.8
m1 = 0.0492	997.643	1500.2
m1 = 0.0555	997.699	1500.7
m1 = 0.0696	997.825	1501.6
m1 = 0.0752	997.876	1502
m1 = 0.0921	998.027	1503.1
m1 = 0.1048	998.143	1504
m1 = 0.148	998.527	1507.1
m1 = 0.2329	999.277	1512.1
m1 = 0.2893	999.76	1515.5
m1 = 0.3426	1000.21	1518.5
m1 = 0.4292	1000.93	1523.1
m1 = 0.4826	1001.36	1525.7
m1 = 0.5834	1002.14	1530.3
m1 = 0.7128	1003.11	1535.5
m1 = 0.8299	1003.94	1539.5
m1 = 1.037	1005.27	1545

COC(=O)C(C)O (stereo unspecified) [methyl 2-hydroxypropanoate] + O
Settings	mass density [kg/m3]	speed of sound [m/s]
m1 = 0.0487	997.862	1499
m1 = 0.0568	997.968	1499.5
m1 = 0.0707	998.157	1500.4
m1 = 0.0956	998.501	1501.2
m1 = 0.1039	998.614	1501.6
m1 = 0.1117	998.722	1502
m1 = 0.1338	999.035	1503.1
m1 = 0.1539	999.294	1504
m1 = 0.223	1000.24	1507.8
m1 = 0.3212	1001.55	1511.7
m1 = 0.484	1003.64	1518.2
m1 = 0.7855	1007.52	1529
m1 = 0.9699	1009.78	1535.3
m1 = 1.168	1012.12	1542.1
m1 = 1.377	1014.5	1548.7
m1 = 1.56	1016.48	1554.2
m1 = 1.776	1018.7	1561.9
m1 = 1.938	1020.4	1566.9
m1 = 2.237	1023.27	1575.8
m1 = 2.632	1026.82	1588.2
m1 = 2.941	1029.45	1597
m1 = 3.322	1032.46	1606.5
m1 = 3.906	1036.62	1617.2
